Experimental data from the supplement of paper PMC5844555.

Assays:
Experiment in all cases: 3' UTR reporter interaction score (median-centred robust z-score of log2 firefly/Renilla activity); higher = less repression of the 3' UTR reporter
Conditions in all cases: HEK293T; 48 h
HRAS = tested on: HRAS
Summary of the method: (§1)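 HEK293T cells were seeded at 10,000 per well in 96-well plates and co-transfected with DharmaFECT Duo, using 100 ng of a firefly luc2P reporter carrying the gene's 3' UTR, 20 ng of Renilla pRL-TK control and 2.5 pmol of miRNA mimic. Both luciferase activities were measured 48 h after transfection. The interaction score is the log-transformed firefly/Renilla ratio, converted to a per-plate robust z-score from the median and median absolute deviation and then median-centred per miRNA, with more negative values indicating interaction. Scores were averaged across at least two independent screens.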

MYCN = tested on: MYCN
Summary of the method: as §1

FBXW7 = tested on: FBXW7
Summary of the method: as §1

BRCA2 = tested on: BRCA2
Summary of the method: as §1

RB1 = tested on: RB1
Summary of the method: as §1

MYT1L = tested on: MYT1L
Summary of the method: as §1

MYB = tested on: MYB
Summary of the method: as §1

PHOX2B = tested on: PHOX2B
Summary of the method: as §1

MYC = tested on: MYC
Summary of the method: as §1

NOTCH1 = tested on: NOTCH1
Summary of the method: as §1

ZEB2 = tested on: ZEB2
Summary of the method: as §1

PHF6 = tested on: PHF6
Summary of the method: as §1

TP53 = tested on: TP53
Summary of the method: as §1

EZH2 = tested on: EZH2
Summary of the method: as §1

Sequence | 3' UTR reporter interaction score (HRAS) | 3' UTR reporter interaction score (MYCN) | 3' UTR reporter interaction score (FBXW7) | 3' UTR reporter interaction score (BRCA2) | 3' UTR reporter interaction score (RB1) | 3' UTR reporter interaction score (MYT1L) | 3' UTR reporter interaction score (MYB) | 3' UTR reporter interaction score (PHOX2B) | 3' UTR reporter interaction score (MYC) | 3' UTR reporter interaction score (NOTCH1) | 3' UTR reporter interaction score (ZEB2) | 3' UTR reporter interaction score (PHF6) | 3' UTR reporter interaction score (TP53) | 3' UTR reporter interaction score (EZH2)
UUCCCUUUGUCAUCCUAUGCCU | -0.0998 | 0.146 | -1.78 | 0.265 | 0.112 | -0.655 | 0.747 | -5.45 | -0.0967 | -0.728 | 0.832 | 2.55 | -0.382 | 0.404
UUCCCUUUGUCAUCCUUCGCCU | -0.327 | 0.0207 | -1.31 | 0.539 | 0.903 | -0.268 | 0.781 | -4.93 | -0.168 | -0.19 | -0.675 | 0.344 | -0.355 | 0.0327
UUCUCCAAAAGAAAGCACUUUCUG | 0.348 | -0.288 | -0.49 | 0.931 | 1.42 | 2.07 | -0.561 | 1.93 | -0.642 | -0.152 | 1.36 | 1.85 | -0.447 | 0.815
UUGAGAAUGAUGAAUCAUUAGG | 1.09 | -0.554 | -0.3 | 0.13 | -0.111 | -0.0444 | 0.0167 | -0.12 | 0.0578 | 0.0298 | -0.412 | -1.78 | 0.335 | -0.195
UUGCAUAGUCACAAAAGUGA | -0.0974 | 0.143 | 1.37 | -0.381 | -0.308 | -0.0799 | -1.85 | 0.0715 | 0.279 | 0.184 | -2.2 | -0.0278 | 0.904 | 0.179
UUGCAUAUGUAGGAUGUCCCAU | 0.995 | -0.178 | 1.23 | 0.216 | -0.812 | -1.22 | -1.75 | -1.16 | 0.476 | 0.153 | -4.28 | -1.76 | 0.961 | 0.731
UUGGCCACAAUGGGUUAGAAC | -0.0679 | 0.113 | -5.44 | 0.035 | 0.342 | 1.36 | 0.316 | 0.306 | 0.316 | -0.0688 | 0.409 | 1.18 | -0.693 | -1.06
UUGGUCCCCUUCAACCAGCUA | 1.24 | 0.0097 | 1.01 | -0.159 | -0.167 | 0.425 | -0.0299 | -0.834 | 0.62 | -0.864 | -0.0455 | -1.46 | -0.692 | 1.2
UUGGUCCCCUUCAACCAGCUGU | 1.24 | 0.117 | 1 | 0.152 | -0.063 | 0.5 | 0.254 | -0.898 | 0.174 | -0.968 | -0.135 | -1.13 | -1.45 | 1.28
UUGUACAUGGUAGGCUUUCAUU | 0.289 | 1.27 | -0.171 | -0.0352 | 0.635 | -0.141 | 1.15 | 0.723 | 1.21 | 0.647 | -1.84 | -1.11 | -0.89 | 0.0583
UUGUGCUUGAUCUAACCAUGU | -0.276 | -0.328 | 0.164 | 0.391 | 0.758 | -0.134 | 0.205 | -1.73 | 0.0929 | 0.182 | -0.746 | 0.117 | -0.638 | 0.222
UUUAACAUGGGGGUACCUGCUG | 0.621 | 0.0587 | 0.198 | 1.26 | 0.395 | -0.244 | -1.1 | -1.08 | -0.0461 | -0.514 | -0.448 | 0.182 | -0.238 | 0.537
UUUAGGAUAAGCUUGACUUUUG | -0.108 | -0.873 | 1.12 | 0.711 | -0.349 | 0.523 | 0.0477 | -0.958 | -0.602 | -0.42 | -2.69 | -0.597 | 0.0255 | 0.299
UUUCCAUAGGUGAUGAGUCAC | 0.654 | 1.24 | -0.836 | -0.419 | 0.93 | -0.218 | 1.55 | -0.505 | 0.823 | -0.326 | -0.252 | -0.367 | -0.699 | -3.48
UUUCCUAUGCAUAUACUUCUUU | -0.802 | 0.517 | 0.0806 | 0.202 | 0.265 | 1.98 | 0.476 | -0.604 | 0.151 | -2.15 | 0.911 | -0.444 | -0.504 | -0.62
UUUGGCAAUGGUAGAACUCACA | -0.139 | -0.0764 | -2.86 | -0.0444 | 0.469 | 0.203 | -1.17 | 0.438 | -0.026 | -0.441 | 0.837 | -0.697 | 0.0472 | 0.322
UUUGUUCGUUCGGCUCGCGUGA | -0.635 | -0.313 | -0.0777 | 1.05 | -0.809 | -0.751 | -0.574 | 0.0504 | 0.135 | 0.323 | 0.164 | 1.7 | 0.275 | 0.52
UUUUGCACCUUUUGGAGUGAA | -0.429 | 0.905 | -3.44 | 0.467 | -1.86 | -0.182 | 1 | -0.86 | 0.393 | 1.27 | -4.16 | 0.706 | 0.767 | -0.000424
UUUUUGCGAUGUGUUCCUAAUA | 0.633 | -0.818 | -2.28 | 0.151 | -2.29 | 0.157 | 0.165 | 0.492 | 0.66 | 0.568 | -2.41 | 0.21 | 0.414 | 1.27
